Tests used:
Type in all cases: in vivo
Serum TSH levels = assay: TSH-releasing activity (serum TSH by double-antibody radioimmunoassay after i.v. administration); conditions: male JCL: SD rats, intravenous, serum TSH 15 minutes after administration; parallel line assay, TRH = 1
Protocol: (1) TSH-releasing activity:
A test compound dissolved in a 0.1% BSA (bovine serum albumin)-containing physiological saline was intravenously administered to a group of five male JCL: SD rats. Fifteen minutes after the administration, blood was taken from the abdominal aorta under anesthesia. Serum TSH levels were determined by the double-antibody radioimmunoassay method (Midgley et al., Endocrinology., 79, 10 (1966)). The BSA-containing physiological saline was used for control instead of the test compound solution.

male STD/ddy mice [1] = assay: Antagonistic effect on pentobarbital anesthesia; conditions: pentobarbital sodium 55 mg/kg i.p., test compound intravenous 10 minutes later, duration of anesthesia, parallel line assay, TRH = 1
Protocol: (2) Antagonistic effect on pentobarbital anesthesia:
Pentobarbital sodium was intraperitoneally administered to a group of ten male STD/ddy mice at a dose of 55 mg/kg. Ten minutes after the administration of pentobarbital sodium, a test compound dissolved in physiological saline was intravenously administered to the mice which had lost the righting reflex. The duration of anesthesia was measured as the time from the end of administration of the test compound until the righting reflex regained. Physiological saline was used for control instead of the test compound solution (Prange et al., Life Science, 14, 447-455, (1974)).

male STD/ddy mice [2] = assay: Increasing effect on spontaneous locomotor activity (Ambulometer); conditions: intraperitoneal, activity measured for 60 minutes, parallel line assay, TRH = 1
Protocol: (3) Increasing effect on spontaneous locomotor activity:
A group of five male STD/ddY mice were individually placed in Ambulometer (i.e., an apparatus for measuring spontaneous locomotor activity; manufactured by OHARA IKA Co.) for 30 minutes to acclimatize to the apparatus. Thereafter, a test compound dissolved in physiological saline was intraperitoneally administered to the mice and, immediately after administration of the test compound, the spontaneous locomotor activity was measured for 60 minutes. Physiological saline was used for control instead of the test compound solution.

male STD/ddy mice [3] = assay: Antagonistic effect on reserpine-induced hypothermia; conditions: intraperitoneal, rectal temperature 30, 60, 120 and 180 minutes after administration, parallel line assay, TRH = 1
Protocol: (4) Antagonistic effect on reserpine-induced hypothermia:
A test compound dissolved in physiological saline was intraperitoneally administered to a group of five male STD/ddy mice, and the rectal temperature was measured 30, 60, 120 and 180 minutes after the administration of the test compound. The increase in temperature in the treated group was compared to that in the control group which received physiological saline instead of the test compound solution.

male STD/ddy mice [4] = assay: Potentiating effect on methamphetamine-induced hyperlocomotion; conditions: methamphetamine 0.2 mg/kg and test compound intraperitoneally at the same time, locomotor activity for 60 minutes, parallel line assay, TRH = 1
Protocol: (5) Potentiating effect on methamphetamine-induced hyperlocomotion:
A group of ten male STD/ddY mice were individually placed in Ambulometer for 30 minutes to acclimatize to the apparatus.

SMILES | TSH-releasing activity, potency ratio relative to TRH (Serum TSH levels) | Antagonistic effect on pentobarbital anesthesia, potency ratio relative to TRH (male STD/ddy mice [1]) | Increasing effect on spontaneous locomotor activity, potency ratio relative to TRH (male STD/ddy mice [2]) | Antagonistic effect on reserpine-induced hypothermia, potency ratio relative to TRH (male STD/ddy mice [3]) | Potentiating effect on action of methamphetamine, potency ratio relative to TRH (male STD/ddy mice [4])
NC(=O)[C@@H]1CCCN1C(=O)[C@H](Cc1c[nH]cn1)NC(=O)[C@@H]1Cc2ccccc2C(=O)N1 [N^α -[(3 S)-1-oxo-1,2,3,4-tetrahydroisoquinoline-3-carbonyl]-L-histidyl-L-prolinamide] | 1 | 10 | 10 | 10 | 10
NC(=O)[C@@H]1CCCN1C(=O)[C@H](Cc1c[nH]cn1)NC(=O)[C@@H]1CCC(=O)N1 [TRH, L-pyroglutamyl-L-histidyl-L-prolinamide] | 1 | 1 | 1 | 1 | 1
